Test [1] concerns the target Bcr/Abl fusion protein (Homo sapiens, UniProt P00519). As to the kind of experiment: Inhibition of BCR-ABL1 (unknown origin) assessed as ATP remaining by Kinase-Glo luminescent kinase assay. On the technique in general: Kinase-Glo reads ATP consumption through a luciferase reaction.
For test [2], the system named is K562. As to the kind of experiment: cells. It is filed as functional, cell-based. The following applies: Homo sapiens, K562, 48 h.
Description: Antitumor activity against human K562 cells assessed as inhibition of cell growth after 48 hrs by MTT assay

Among the data in ChEMBL document CHEMBL3596095, “Design, synthesis, and biological activity of phenyl-pyrazole derivatives as BCR-ABL kinase inhibitors” (Bioorg Med Chem, 2015) are IC50 values, retold here.

Chain of Bcr/Abl fusion protein (P00519 whole entry, the tested form may be a part): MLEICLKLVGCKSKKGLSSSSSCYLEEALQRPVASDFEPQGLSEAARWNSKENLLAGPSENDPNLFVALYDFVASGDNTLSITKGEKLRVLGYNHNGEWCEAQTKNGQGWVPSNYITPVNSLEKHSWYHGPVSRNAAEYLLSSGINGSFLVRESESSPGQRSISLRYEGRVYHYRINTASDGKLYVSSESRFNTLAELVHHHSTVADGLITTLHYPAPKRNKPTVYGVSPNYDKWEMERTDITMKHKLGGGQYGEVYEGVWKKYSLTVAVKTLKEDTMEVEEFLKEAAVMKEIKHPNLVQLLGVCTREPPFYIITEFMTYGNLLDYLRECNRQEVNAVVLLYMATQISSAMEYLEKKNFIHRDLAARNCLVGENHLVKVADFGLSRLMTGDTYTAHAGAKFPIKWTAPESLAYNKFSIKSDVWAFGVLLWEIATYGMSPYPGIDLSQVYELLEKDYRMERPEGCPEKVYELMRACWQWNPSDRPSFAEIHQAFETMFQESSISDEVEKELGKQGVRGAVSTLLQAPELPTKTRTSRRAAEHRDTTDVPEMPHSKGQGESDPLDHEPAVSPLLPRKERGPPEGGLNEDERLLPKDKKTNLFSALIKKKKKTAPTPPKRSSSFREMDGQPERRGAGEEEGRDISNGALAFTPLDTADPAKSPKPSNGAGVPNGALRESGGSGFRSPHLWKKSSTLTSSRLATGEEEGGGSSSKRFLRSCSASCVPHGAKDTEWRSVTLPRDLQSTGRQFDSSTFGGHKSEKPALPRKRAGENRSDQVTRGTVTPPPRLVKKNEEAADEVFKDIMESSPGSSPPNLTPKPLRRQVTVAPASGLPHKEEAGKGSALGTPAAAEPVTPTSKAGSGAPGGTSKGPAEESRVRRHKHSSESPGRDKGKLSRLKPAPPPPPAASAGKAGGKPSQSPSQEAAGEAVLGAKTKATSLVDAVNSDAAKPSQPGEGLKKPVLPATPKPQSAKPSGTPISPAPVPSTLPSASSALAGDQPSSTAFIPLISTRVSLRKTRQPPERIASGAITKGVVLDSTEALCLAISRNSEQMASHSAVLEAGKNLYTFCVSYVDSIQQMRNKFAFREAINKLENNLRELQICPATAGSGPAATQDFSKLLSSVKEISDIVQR
Chain of Bcr/Abl fusion protein (P11274 whole entry, further chain, the tested form may be a part): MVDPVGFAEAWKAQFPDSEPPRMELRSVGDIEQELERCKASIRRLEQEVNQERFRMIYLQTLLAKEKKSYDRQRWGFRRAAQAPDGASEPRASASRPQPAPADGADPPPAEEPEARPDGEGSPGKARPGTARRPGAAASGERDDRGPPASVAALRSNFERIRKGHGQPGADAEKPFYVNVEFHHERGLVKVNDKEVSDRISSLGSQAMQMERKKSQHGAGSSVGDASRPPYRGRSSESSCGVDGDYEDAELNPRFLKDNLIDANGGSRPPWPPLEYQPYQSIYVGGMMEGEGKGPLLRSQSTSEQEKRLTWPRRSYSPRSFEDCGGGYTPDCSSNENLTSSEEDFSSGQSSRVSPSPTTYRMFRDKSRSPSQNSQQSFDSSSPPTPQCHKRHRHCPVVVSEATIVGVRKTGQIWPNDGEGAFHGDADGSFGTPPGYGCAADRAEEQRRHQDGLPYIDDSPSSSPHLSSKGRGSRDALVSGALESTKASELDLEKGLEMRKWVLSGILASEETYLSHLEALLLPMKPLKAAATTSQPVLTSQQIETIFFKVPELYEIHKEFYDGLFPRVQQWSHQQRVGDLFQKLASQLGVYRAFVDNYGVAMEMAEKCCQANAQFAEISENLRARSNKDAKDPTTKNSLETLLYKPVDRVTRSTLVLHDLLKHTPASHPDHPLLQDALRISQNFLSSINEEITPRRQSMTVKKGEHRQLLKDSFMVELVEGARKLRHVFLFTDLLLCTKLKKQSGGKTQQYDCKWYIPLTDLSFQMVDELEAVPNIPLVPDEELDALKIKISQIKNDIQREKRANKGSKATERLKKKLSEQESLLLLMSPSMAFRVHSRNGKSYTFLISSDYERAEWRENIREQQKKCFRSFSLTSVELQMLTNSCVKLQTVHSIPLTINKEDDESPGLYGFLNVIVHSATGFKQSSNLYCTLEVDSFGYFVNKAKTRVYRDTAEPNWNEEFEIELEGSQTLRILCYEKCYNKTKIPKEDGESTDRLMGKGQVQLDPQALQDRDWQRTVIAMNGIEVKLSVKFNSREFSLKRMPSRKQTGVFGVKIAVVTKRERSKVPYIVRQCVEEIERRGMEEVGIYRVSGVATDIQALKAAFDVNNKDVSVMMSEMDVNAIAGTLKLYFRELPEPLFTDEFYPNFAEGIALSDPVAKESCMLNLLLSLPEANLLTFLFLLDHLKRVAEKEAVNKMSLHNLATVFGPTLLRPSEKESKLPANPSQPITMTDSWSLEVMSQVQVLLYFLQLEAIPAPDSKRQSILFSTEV

Usually IC50 stands for the concentration that gives 50% inhibition. Take `CCN(CC)Cc1ccc(C(=O)Nc2ccc(C)c(-n3cc(-c4cccnc4)cn3)c2)cc1`: the IC50 in test [1] was 129 nM; in test [2], 3260 nM.

For `COc1ccc(C(=O)Nc2ccc(C)c(-n3cc(-c4cccnc4)cn3)c2)cc1`, the figures for the IC50 in test [1] and in test [2] were 46.2 nM and 18300 nM, respectively.

Consider `Cc1ccc(NC(=O)c2ccc(CN3CCOCC3)cc2)cc1-n1cc(-c2cccnc2)cn1`, for which the IC50 in test [1] was found to be 178 nM; in test [2], 21500 nM.

On to `Cc1ccc(NC(=O)c2ccc(F)cc2)cc1-n1cc(-c2cccnc2)cn1`, for which the IC50 in test [1] stood at 214 nM; in test [2], 12500 nM.

As to `Cc1ccc(NC(=O)c2ccc(CN3CCN(CCO)CC3)cc2)cc1-n1cc(-c2cccnc2)cn1`, the IC50 was determined as 175 nM in test [1] and 98300 nM in test [2].

As for `Cc1ccc(NC(=O)c2ccc(Cn3ccnc3)cc2)cc1-n1cc(-c2cccnc2)cn1`, the results for the IC50 in test [1] and in test [2] were 326 nM and 136000 nM, respectively.

Regarding `Cc1ccc(NC(=O)c2ccc(CN3CCN(C)CC3)cc2)cc1-n1cc(-c2cccnc2)cn1`, the IC50 came to 50.6 nM in test [1] and 1670 nM in test [2].

In the case of `Cc1ccc(NC(=O)c2cccc(C(F)(F)F)c2)cc1-n1cc(-c2cccnc2)cn1`, the IC50 in test [1] was 14.2 nM; in test [2], 270 nM.

For the compound `Cc1ccc(NC(=O)c2ccc(C(F)(F)F)cc2)cc1-n1cc(-c2cccnc2)cn1`, the IC50 in test [1] came to 43.3 nM; in test [2], 760 nM.

`Cc1ccc(NC(=O)c2ccc(CN3CCCC3)cc2)cc1-n1cc(-c2cccnc2)cn1`: the IC50 in test [1] stood at 117 nM; in test [2], 2740 nM.

As for `CCc1ccc(C(=O)Nc2ccc(C)c(-n3cc(-c4cccnc4)cn3)c2)cc1`, the values for the IC50 in test [1] and in test [2] were 41 nM and 6520 nM, respectively.

For the compound `Cc1ccc(NC(=O)c2cccc(Cl)c2)cc1-n1cc(-c2cccnc2)cn1`, the IC50 was 15.9 nM in test [1] and 1320 nM in test [2].

For the compound `CCN1CCN(Cc2ccc(C(=O)Nc3ccc(C)c(-n4cc(-c5cccnc5)cn4)c3)cc2)CC1`, the results for the IC50 in test [1] and in test [2] were 16.9 nM and 2330 nM, respectively.

As for `Cc1ccc(NC(=O)c2ccc(CN3CCCN(C)CC3)cc2)cc1-n1cc(-c2cccnc2)cn1`, the half-maximal inhibitory concentration (IC50) in test [1] came out at 26.6 nM; in test [2], 8650 nM.
